Assay results: patent US8772319B2 (priority 2004, dated 2014)
Values joined by “and” are separate entries in the source; they are usually repeats but may differ in a detail not shown here. Equal entries are not always repeated. Where two headings read alike, the source gives them in different places.

Tests used:
[1] = tested on: male Swiss-Webster mice; experiment: Cocaine/compound interaction study on locomotor activity; assay type: in vivo, mouse; details: for Attenuation of cocaine-induced LMA: 20 mg/kg of cocaine; for AD50, dose attenuating cocaine-induced stimulation by 50%: Table 8, ligand-cocaine interaction study, 20 mg/kg cocaine IP
[2] = biological target: T1, human dopamine transporter (hDAT) (Homo sapiens, UniProt Q01959); experiment: cell-based; details: for IC50: Reuptake Inhibition [3H]DA IC50, Table 6; for Discrimination Ratios (DR) [3H]DA reuptake/DAT binding: Table 6
[3] = biological target: T2, D3 receptor (Homo sapiens, UniProt P35462); experiment: Inhibition of quinpirole-stimulated mitogenesis ([3H]thymidine incorporation), CHOp-D3 cells; assay type: cell-based
T2 construct: expressed in transfected cells; host or cells: CHOp- cells (CHOp-D3)

[4] = biological target: T2, D3 receptor; experiment: D3 receptor binding, CHOp- cells, [3H]YM-09151-2
[5] = tested on: male Swiss-Webster mice; experiment: Locomotor activity 8-hour time course/dose response study; details: for ED50: Mus musculus, ip, 8 h, read-out: ED50, dose producing 1/2 maximal stimulant activity (S, stimulation); for ME/CME, Maximal Effect/Cocaine Maximal Effect / mode of action / ID50, dose producing 1/2 maximal depressant activity (I, inhibition): Table 9, 8 hours; for mode of action: ligand alone study; for ID50, dose producing 1/2 maximal depressant activity (I, inhibition): mouse, IP
Experimental: (§1) 3. Locomotor Activity. […] Panels of infrared beams (16 beams) and corresponding photodetectors were located in the horizontal direction along the sides of each activity chamber. […] Just prior to placement in the apparatus, all mice received a saline injection IP. In all studies, horizontal activity (interruption of 1 photocell beam) was measured for 1-h within 10-min periods. Testing was conducted with one mouse per activity chamber. […] Plot the mean (±SEM) maximal stimulant activity (total counts in the 30 min period divided by 3) vs dose. Perform a log10 transformation of the 30 min period average counts for individual subjects to homogenize variances for subsequent analyses. […] Fit the 30 min period average counts across subjects to a function of log10 dose using least-squares curve-fitting analyses (i.e. TableCurve software from Jandel). Estimate the maximum effect from the resultant dose-response curve. […] Determine the ED50 (dose that produces ½ maximal stimulant activity) from a linear regression analysis of the ascending portion (up to the dose that produces a maximal effect) of the curve. […] Plot the mean (±SEM) activity (total counts in the 30 min period divided by 3) vs dose. Perform a log10 transformation of the 30 min period average counts for individual subjects to homogenize variances for subsequent analyses. Conduct an ANOVA and contrast (specified a priori) each dose of the test compound to the vehicle to determine significant (p<0.05) dose effects. Conduct a linear least-squares regression analysis; regress the min period average counts across subjects over the descending portion of the curve against the log10 dose of the test compound. […] Perform a log10 transformation of the 30 min period average counts for individual subjects to homogenize variances for subsequent analyses. […] Conduct a linear least-squares regression analysis; regress the 30 min period average counts across subjects over the descending portion of the curve against the log10 dose of the test compound. […] Locomotor Activity 8-hour time course/dose response study. […] A panel of infrared beams (16 beams) and corresponding photodetectors were located in the horizontal direction along the sides of each activity chamber. A 7.5-W incandescent light above each chamber provided dim illumination. Fans provided an 80-dB ambient noise level within the chamber. […] In all studies, horizontal activity (interruption of photocell beams) was measured for 8-h within 10-min periods, beginning at 0800 hrs (2 hours after lights on). Testing was conducted with one mouse per activity chamber. Compound alone study.

[6] = biological target: T3, human norepinephrine transporter (hNET) (Homo sapiens, UniProt P23975); experiment: cell-based; details: Table 6; read-out: Reuptake Inhibition [3H]NE IC50
[7] = biological target: T4, human serotonin transporter (hSERT) (Homo sapiens, UniProt P31645); experiment: cell-based; details: Reuptake Inhibition [3H]5-HT IC50, Table 6
[8] = biological target: T4, human serotonin transporter (hSERT); experiment: biochemical; details: Table 5, read-out: SERT binding affinity Ki
[9] = biological target: T1, human dopamine transporter (hDAT); experiment: biochemical; assay type: binding
[10] = biological target: T5, D1 receptor (Homo sapiens, UniProt P21728); experiment: D1 receptor binding, LHD1 cells, [3H]SCH 23,390
T5 construct: expressed in transfected cells; host or cells: LHD1 cells

[11] = biological target: T6, 5-HT1A receptor (Homo sapiens, UniProt P08908); experiment: 5-HT1A receptor binding, HA7 cells, [3H]8-OH-DPAT
T6 construct: expressed in transfected cells; host or cells: HA7 cells
T6 sequence (P08908 1-422): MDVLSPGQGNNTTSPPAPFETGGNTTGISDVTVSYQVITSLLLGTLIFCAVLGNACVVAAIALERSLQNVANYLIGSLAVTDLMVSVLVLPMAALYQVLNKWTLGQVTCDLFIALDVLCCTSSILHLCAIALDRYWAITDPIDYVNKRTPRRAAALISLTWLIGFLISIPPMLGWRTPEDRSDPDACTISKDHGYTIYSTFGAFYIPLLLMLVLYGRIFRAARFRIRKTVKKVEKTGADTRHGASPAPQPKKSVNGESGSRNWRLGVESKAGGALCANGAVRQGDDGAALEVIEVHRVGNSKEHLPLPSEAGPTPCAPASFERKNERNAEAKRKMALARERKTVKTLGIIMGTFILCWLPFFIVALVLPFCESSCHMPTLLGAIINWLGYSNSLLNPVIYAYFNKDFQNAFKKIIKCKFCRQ

[12] = biological target: T7, D2 receptor (Homo sapiens, UniProt P14416); experiment: D2 receptor binding, CHOp- cells, [3H]YM-09151-2
T7 construct: expressed in transfected cells; host or cells: CHOp- cells (CHOp-D2)

[13] = biological target: T7, D2 receptor; experiment: cell-based
[14] = tested on: male Swiss-Webster mice; experiment: Locomotor activity, compound alone, 1-h session; assay type: in vivo, mouse
Experimental: as §1

[15] = biological target: T8, 5-HT2C receptor (Rattus norvegicus, UniProt P08909); experiment: 5-HT2C receptor binding, NIH-3T3-P cells, [3H]mesulergine
T8 construct: expressed in transfected cells; host or cells: NIH-3T3-P cells
T8 sequence (P08909 33-460): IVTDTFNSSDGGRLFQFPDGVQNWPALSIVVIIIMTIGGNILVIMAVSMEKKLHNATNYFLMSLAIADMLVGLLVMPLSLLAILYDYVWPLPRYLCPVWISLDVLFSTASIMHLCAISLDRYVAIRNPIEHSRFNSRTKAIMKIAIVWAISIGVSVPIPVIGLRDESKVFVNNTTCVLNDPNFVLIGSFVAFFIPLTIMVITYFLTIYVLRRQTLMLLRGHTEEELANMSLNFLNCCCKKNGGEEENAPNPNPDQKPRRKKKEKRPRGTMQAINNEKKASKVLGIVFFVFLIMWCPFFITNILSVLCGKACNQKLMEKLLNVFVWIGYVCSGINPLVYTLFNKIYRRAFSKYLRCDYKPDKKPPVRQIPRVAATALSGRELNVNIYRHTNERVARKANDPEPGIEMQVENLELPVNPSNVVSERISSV

[16] = biological target: T9, 5-HT2A receptor (Rattus norvegicus, UniProt P14842); experiment: 5-HT2A receptor binding, NIH-3T3-GF6 cells, [3H]ketanserin
T9 construct: expressed in transfected cells; host or cells: NIH-3T3-GF6 cells

[17] = biological target: T3, human norepinephrine transporter (hNET); experiment: biochemical; details: Table 5; [125I]RTI-55; oxalate salts; read-out: NET binding affinity Ki

T1 sequence (Q01959 whole entry): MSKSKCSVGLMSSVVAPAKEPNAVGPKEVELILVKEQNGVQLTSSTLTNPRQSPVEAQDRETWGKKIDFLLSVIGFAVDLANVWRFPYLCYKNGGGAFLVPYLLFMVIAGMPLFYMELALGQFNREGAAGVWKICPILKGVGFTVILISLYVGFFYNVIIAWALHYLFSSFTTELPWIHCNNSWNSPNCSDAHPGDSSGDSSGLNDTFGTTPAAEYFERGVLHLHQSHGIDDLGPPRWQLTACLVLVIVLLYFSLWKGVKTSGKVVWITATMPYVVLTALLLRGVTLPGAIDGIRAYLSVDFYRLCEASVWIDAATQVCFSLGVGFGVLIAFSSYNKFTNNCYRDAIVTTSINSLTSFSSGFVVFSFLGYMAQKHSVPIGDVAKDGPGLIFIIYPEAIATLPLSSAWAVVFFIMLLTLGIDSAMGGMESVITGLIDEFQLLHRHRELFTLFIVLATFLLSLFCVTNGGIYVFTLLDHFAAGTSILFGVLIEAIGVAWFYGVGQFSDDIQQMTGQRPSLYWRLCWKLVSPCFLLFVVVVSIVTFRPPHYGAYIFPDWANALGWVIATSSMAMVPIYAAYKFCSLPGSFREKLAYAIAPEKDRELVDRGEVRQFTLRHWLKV
T2 sequence (P35462 whole entry): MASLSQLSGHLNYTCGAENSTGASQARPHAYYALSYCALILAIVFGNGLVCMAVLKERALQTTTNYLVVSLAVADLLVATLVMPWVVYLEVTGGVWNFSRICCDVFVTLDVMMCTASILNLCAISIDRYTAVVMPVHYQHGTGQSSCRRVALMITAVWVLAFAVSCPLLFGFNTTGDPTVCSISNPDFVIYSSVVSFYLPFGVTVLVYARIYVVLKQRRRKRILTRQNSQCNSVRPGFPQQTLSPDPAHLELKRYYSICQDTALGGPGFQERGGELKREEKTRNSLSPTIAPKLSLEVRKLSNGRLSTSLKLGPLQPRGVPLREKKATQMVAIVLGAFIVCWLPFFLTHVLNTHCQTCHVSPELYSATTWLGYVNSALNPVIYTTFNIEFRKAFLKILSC
T4 sequence (P31645 whole entry): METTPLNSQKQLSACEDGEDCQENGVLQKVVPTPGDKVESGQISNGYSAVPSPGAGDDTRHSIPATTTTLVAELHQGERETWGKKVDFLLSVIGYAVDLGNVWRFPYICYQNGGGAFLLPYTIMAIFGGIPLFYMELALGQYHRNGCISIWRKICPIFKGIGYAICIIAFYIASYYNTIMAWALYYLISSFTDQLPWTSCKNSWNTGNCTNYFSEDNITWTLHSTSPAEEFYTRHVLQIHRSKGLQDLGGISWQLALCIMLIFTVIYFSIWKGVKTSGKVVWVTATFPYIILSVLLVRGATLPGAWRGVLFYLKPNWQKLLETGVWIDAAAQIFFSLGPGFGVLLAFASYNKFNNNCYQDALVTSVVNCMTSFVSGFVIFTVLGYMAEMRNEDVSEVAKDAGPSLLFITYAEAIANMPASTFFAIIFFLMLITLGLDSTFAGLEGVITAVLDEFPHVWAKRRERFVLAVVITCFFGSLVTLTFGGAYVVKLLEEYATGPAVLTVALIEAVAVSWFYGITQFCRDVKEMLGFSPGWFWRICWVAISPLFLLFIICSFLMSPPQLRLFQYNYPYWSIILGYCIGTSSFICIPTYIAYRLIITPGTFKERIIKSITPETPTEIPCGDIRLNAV
T3 sequence (P23975 whole entry): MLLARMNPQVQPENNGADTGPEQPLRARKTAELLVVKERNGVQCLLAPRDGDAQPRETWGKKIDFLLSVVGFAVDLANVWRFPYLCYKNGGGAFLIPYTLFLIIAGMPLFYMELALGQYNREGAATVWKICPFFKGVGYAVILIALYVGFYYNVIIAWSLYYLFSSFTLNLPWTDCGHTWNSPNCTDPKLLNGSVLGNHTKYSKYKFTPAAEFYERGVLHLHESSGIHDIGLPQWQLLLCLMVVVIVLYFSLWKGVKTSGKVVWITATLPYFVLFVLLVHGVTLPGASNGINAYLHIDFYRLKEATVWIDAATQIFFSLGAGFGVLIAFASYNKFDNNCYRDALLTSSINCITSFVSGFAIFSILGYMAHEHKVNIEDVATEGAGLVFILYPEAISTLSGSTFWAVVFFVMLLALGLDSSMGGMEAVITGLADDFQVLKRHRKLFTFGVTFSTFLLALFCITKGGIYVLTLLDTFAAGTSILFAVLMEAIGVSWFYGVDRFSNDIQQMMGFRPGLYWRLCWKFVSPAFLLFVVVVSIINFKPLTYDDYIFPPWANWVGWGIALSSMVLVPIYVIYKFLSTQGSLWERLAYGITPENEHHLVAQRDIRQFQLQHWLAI
T7 sequence (P14416 whole entry): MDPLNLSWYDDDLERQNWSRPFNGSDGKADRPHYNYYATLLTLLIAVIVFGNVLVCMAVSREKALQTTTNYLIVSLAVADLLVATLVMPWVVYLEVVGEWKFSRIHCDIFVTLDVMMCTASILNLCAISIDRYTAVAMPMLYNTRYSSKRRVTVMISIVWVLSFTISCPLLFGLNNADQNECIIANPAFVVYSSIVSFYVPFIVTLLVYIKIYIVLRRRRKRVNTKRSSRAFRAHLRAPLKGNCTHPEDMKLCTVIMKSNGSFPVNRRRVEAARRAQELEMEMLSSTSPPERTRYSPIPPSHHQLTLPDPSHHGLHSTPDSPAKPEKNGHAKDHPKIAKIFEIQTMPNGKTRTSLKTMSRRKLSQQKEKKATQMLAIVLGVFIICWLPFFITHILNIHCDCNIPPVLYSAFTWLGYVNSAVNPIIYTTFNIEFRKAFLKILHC
T9 sequence (P14842 whole entry): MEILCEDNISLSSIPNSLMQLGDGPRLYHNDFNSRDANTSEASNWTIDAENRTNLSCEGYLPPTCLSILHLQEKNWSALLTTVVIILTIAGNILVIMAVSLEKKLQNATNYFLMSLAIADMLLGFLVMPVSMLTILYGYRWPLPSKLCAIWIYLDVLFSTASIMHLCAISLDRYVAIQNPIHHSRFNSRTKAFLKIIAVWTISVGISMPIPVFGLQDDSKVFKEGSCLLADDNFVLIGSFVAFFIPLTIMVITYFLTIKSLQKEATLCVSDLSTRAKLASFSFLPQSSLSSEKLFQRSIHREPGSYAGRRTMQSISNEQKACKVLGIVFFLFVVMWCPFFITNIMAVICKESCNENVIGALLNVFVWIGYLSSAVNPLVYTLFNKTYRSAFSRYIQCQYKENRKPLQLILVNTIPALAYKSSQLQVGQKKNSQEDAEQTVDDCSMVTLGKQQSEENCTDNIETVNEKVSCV
T5 sequence (P21728 whole entry): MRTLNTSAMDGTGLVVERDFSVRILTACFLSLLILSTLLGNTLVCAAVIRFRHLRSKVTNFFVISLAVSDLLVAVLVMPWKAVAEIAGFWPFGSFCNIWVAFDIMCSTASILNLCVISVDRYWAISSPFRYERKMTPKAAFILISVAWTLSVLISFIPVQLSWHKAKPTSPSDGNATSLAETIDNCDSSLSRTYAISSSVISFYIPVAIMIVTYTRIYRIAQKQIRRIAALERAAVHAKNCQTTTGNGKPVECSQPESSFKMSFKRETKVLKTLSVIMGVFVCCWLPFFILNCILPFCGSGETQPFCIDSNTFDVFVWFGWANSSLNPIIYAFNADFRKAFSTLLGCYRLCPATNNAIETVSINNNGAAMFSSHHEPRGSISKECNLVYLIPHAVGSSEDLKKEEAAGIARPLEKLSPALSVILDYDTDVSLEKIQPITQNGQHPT

Compound | Attenuation of cocaine-induced LMA [1] | AD50, dose attenuating cocaine-induced stimulation by 50% [1] [mg/kg] | IC50 [2] [nM] | Discrimination Ratios (DR) [3H]DA reuptake/DAT binding [2] | IC50 [3] [nM] | ED50 [5] [mg/kg] | ME/CME, Maximal Effect/Cocaine Maximal Effect [5] | mode of action [5] | ID50, dose producing 1/2 maximal depressant activity (I, inhibition) [5] | IC50 [6] [nM] | Binding Ratios NET/DAT ([9]; Table 5) | Binding Ratios SERT/DAT ([9]; Table 5) | Ki [11] [nM] | other results
Fc1ccc(C(OCCCCN2CCNC(c3ccccc3)C2)c2ccc(F)cc2)cc1 (stereo not drawn) [Compound 28, 2-Phenyl-4-[4-[bis(4-fluorophenyl)methoxy]butyl]piperazine] | Attenuation | 50.27 | 550 ± 140 | 144 and 144.4 | 629 | 7.6 | 0.30 | biphasic | 36.4/I^e,f mg/kg | 290 ± 50 | 49.9 | 19.6 | 2250 ± 359 | Ki ([4]; Table 7, CHOp- cells, [3H]YM-09151-2, read-out: D3 Affinity Ki): 677 ± 262 nM; IC50 [7]: 0.7 ± 0.26 µM; Ki ([8]; [125I]RTI-55, oxalate salts): 0.0746 ± 0.0058 µM; Ki ([9]; Table 5, [125I]RTI-55, oxalate salts, read-out: DAT binding affinity Ki): 3.81 ± 0.84 nM; Ki ([10]; Table 7, LHD1 cells, [3H]SCH 23,390, read-out: D1 Affinity Ki): 6150 ± 541 nM; Ki ([12]; Table 7, CHOp- cells, [3H]YM-09151-2, read-out: D2 Affinity Ki): 715 ± 404 nM; IC50 ([13]; read-out: D2 Antagonist activity IC50): 164 nM; ED50 ([14]; Mus musculus, ip, 1 h, read-out: ED50, dose producing 1/2 maximal stimulant activity (S, stimulation)): 1.52 mg/kg; mode of action ([14]; Table 8, ligand alone study): monophasic; ME/CME, Maximal Effect/Cocaine Maximal Effect ([14]; Table 8, mouse locomotor activity): 0.30; effect on spontaneous LMA ([14]; mouse, compound alone): significant increase; Ki ([15]; Table 7, rat receptors, [3H]mesulergine, read-out: 5-HT2C Affinity Ki): 6700 ± 437 nM; Ki ([16]; Table 7, rat receptors, NIH-3T3-GF6 cells, [3H]ketanserin, read-out: 5-HT2A Affinity Ki): 1490 ± 352 nM
Fc1ccc(C(OCCCCN2CCN(c3ccccn3)CC2)c2ccc(F)cc2)cc1 [Compound 39, 1-[4-[Bis(4-fluorophenyl)methoxy]butyl]-4-pyridin-2-ylpiperazine] | Attenuation | 62.1 | 386 ± 55 | 46 | 955 | 38 | >0.35 | biphasic | 60.3/I^e,i mg/kg | 2230 ± 710 | 12.3 | >1190 | 53.5 ± 8.62 | Ki [4]: 453 ± 163 nM; Ki [17]: 103 ± 37 nM; IC50 ([7]; bound given in μM): > 10 µM; Ki ([8]; bound given in μM): > 10 µM; Ki [9]: 8.4 ± 4 nM; Ki [10]: 597 ± 19.4 nM; binding for 5-HT1A ([11]; Table 7): moderate binding; Ki [12]: 282 ± 67.7 nM; D2 functional activity, marked agonist (footnote d) ([13]; Table 7, CHOp-D2 cells, [3H]thymidine incorporation, agonist): 196 ± 62.8^d nM; ED50, dose producing 1/2 maximal stimulant activity (S, stimulation) ([14]; Table 8, mouse, IP, ligand alone, 1-h session): no activity; Ki [15]: 3450 ± 1080 nM; Ki [16]: 498 ± 47.9 nM
